In ChEMBL document CHEMBL2311248, “Discovery of potent myeloid cell leukemia 1 (Mcl-1) inhibitors using fragment-based methods and structure-based design” (J Med Chem, 2013):

What was measured:
[1] = target: Apoptosis regulator Bcl-2 (Homo sapiens, UniProt P10415)
Bcl-2-like protein 1 = Bcl-2-like protein 1 (Homo sapiens, UniProt Q07817)
[2] = target: Induced myeloid leukemia cell differentiation protein Mcl-1 (Homo sapiens, UniProt Q07820)
Chain of Induced myeloid leukemia cell differentiation protein Mcl-1 (Q07820 whole entry): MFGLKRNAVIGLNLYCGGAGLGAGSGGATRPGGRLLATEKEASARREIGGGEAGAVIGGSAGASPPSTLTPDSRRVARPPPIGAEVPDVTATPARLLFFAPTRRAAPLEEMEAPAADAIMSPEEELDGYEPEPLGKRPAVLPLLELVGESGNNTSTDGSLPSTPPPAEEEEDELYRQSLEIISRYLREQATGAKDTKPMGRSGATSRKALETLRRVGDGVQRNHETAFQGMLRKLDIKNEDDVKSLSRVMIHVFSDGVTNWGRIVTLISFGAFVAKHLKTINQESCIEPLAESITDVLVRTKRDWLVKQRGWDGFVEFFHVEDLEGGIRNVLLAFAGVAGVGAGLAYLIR

Chain of Bcl-2-like protein 1 (Q07817 whole entry): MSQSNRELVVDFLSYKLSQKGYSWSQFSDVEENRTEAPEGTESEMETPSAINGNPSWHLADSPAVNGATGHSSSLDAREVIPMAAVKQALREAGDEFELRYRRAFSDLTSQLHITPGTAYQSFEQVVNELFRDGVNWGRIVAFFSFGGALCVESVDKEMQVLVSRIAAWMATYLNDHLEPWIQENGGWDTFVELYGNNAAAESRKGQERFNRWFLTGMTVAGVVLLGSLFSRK
Chain of Apoptosis regulator Bcl-2 (P10415 whole entry): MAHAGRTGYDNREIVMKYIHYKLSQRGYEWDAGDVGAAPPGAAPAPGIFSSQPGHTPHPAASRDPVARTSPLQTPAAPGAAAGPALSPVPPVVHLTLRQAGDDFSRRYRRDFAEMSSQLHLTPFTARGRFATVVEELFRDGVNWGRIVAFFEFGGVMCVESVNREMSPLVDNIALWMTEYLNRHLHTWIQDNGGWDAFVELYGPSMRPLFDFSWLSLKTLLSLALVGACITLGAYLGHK

**Q.** `O=C(O)c1[nH]c2cc(Cl)ccc2c1CCCOc1cccc2ccccc12` was tested. Which Ki [1] did it give?
**A.** Its Ki is 0.96 µM.

**Q.** And the Ki (Bcl-2-like protein 1)?
**A.** The Ki was 6.8 µM.

**Q.** `Cc1cc(OCC(=O)O)ccc1Cl` was tested. Which Ki [1] did it give?
**A.** Its Ki is greater than 1000 µM.

**Q.** And the Ki (Bcl-2-like protein 1)?
**A.** The Ki was greater than 1000 µM.

**Q.** What about the Ki [2] of the same compound?
**A.** The Ki was 103 µM.

**Q.** Which results are given for `O=C(O)c1c(CCCOc2cccc3ccccc23)c2ccccc2n1Cc1ccccc1`?
**A.** Ki [1]: > 15 µM; Ki (Bcl-2-like protein 1): > 15 µM; Ki [2]: 0.29 µM

**Q.** `O=C(O)c1sc2ccccc2c1CCc1cccc2ccccc12` was tested. Which Ki [2] did it give?
**A.** Its Ki is 12.5 µM.

**Q.** For `Cc1cc(OCCCn2c(C(=O)O)cc3ccccc32)ccc1Cl`, which Ki [2] is on record?
**A.** The Ki was 1.2 µM.

**Q.** With `O=C(O)c1[nH]c2cc(Cl)ccc2c1CCCOc1cccc2c1CCCC2` as the compound, how does the Ki [2] read?
**A.** The Ki was 0.066 µM.

**Q.** What does the source list for `Cc1cc(OCCCc2c(C(=O)O)[nH]c3ccccc23)cc(C)c1Cl`?
**A.** Ki [1]: 5.3 µM; Ki (Bcl-2-like protein 1): > 15 µM

**Q.** For `Cc1cc(OCCCc2c(C(=O)O)sc3cc(Cl)ccc23)cc(C)c1Cl`, which Ki [1] is on record?
**A.** The Ki was 0.8 µM.

**Q.** And the Ki (Bcl-2-like protein 1)?
**A.** The Ki was 4.1 µM.

**Q.** For `Cn1c(C(=O)O)c(CCCOc2cccc3ccccc23)c2ccccc21`, which Ki [1] is on record?
**A.** The Ki was greater than 15 µM.

**Q.** And the Ki (Bcl-2-like protein 1)?
**A.** The Ki was greater than 15 µM.

**Q.** How did the Ki [2] turn out when `O=C(O)c1cc2ccccc2n1CCCOc1cccc2ccccc12` was run?
**A.** Its Ki is 0.47 µM.

**Q.** With `O=C(O)c1oc2ccccc2c1CCc1cccc2ccccc12` as the compound, how does the Ki [2] read?
**A.** Its Ki is 9.5 µM.

**Q.** How did the Ki [1] turn out when `c1ccc2c(CSc3ncn[nH]3)cccc2c1` was run?
**A.** Its Ki is greater than 1000 µM.

**Q.** And the Ki (Bcl-2-like protein 1)?
**A.** The Ki was greater than 1000 µM.

**Q.** And the Ki [2]?
**A.** The Ki was 86 µM.

**Q.** What does the source list for `Cc1ccc2c(Cl)c(C(=O)O)sc2c1`?
**A.** Ki [1]: > 1000 µM; Ki (Bcl-2-like protein 1): 230 µM

**Q.** For `Cc1cc(OCCC(=O)O)cc(C)c1Cl`, which Ki [1] is on record?
**A.** The Ki was greater than 1000 µM.

**Q.** And the Ki (Bcl-2-like protein 1)?
**A.** The Ki was greater than 1000 µM.

**Q.** And the Ki [2]?
**A.** Its Ki is 60 µM.

**Q.** `Cc1cc(OCCCn2c(C(=O)O)cc3ccccc32)cc(C)c1Cl` was tested. Which Ki [2] did it give?
**A.** The Ki was 0.41 µM.

**Q.** For `NC(=O)c1cc2ccccc2n1CCCOc1cccc2ccccc12`, which Ki [2] is on record?
**A.** The Ki was greater than 500 µM.

**Q.** With `Cc1cc(OCCCc2c(C(=O)O)[nH]c3cc(Cl)ccc23)ccc1Cl` as the compound, how does the Ki [1] read?
**A.** Its Ki is 1.4 µM.

**Q.** What about the Ki (Bcl-2-like protein 1) of the same compound?
**A.** Its Ki is greater than 15 µM.

**Q.** Which results are given for `Cc1cc(OCCCc2c(C(=O)O)[nH]c3ccccc23)ccc1Cl`?
**A.** Ki [1]: 9.1 µM; Ki (Bcl-2-like protein 1): > 15 µM

**Q.** For `O=C(O)c1cc2ccccc2o1`, which Ki [2] is on record?
**A.** The Ki was greater than 1000 µM.

**Q.** How did the Ki [1] turn out when `O=C(O)c1oc2ccccc2c1CCCOc1cccc2ccccc12` was run?
**A.** Its Ki is 4.3 µM.

**Q.** How did the Ki [1] turn out when `Cc1c(C(=O)O)oc2c(C)cccc12` was run?
**A.** The Ki was greater than 1000 µM.

**Q.** What about the Ki (Bcl-2-like protein 1) of the same compound?
**A.** Its Ki is greater than 1000 µM.

**Q.** `O=C(O)c1oc2ccccc2c1CCCc1cccc2ccccc12` was tested. Which Ki [2] did it give?
**A.** The Ki was 14.6 µM.

**Q.** Which results are given for `Cc1cccc2c(-c3ccccc3)c(C(=O)O)[nH]c12`?
**A.** Ki [1]: > 1000 µM; Ki (Bcl-2-like protein 1): > 1000 µM

**Q.** `O=C(O)c1cc2ccccc2[nH]1` [INDOLE-2-CARBOXYLIC ACID] was tested. Which Ki [2] did it give?
**A.** Its Ki is greater than 1000 µM.

**Q.** For `O=C(O)c1sc2ccccc2c1CCCc1cccc2ccccc12`, which Ki [2] is on record?
**A.** The Ki was 9.6 µM.

**Q.** Which Ki [1] does the source give for `Cc1cc(OCCCc2c(C(=O)O)n(C)c3ccccc23)cc(C)c1Cl` here?
**A.** The Ki was 7.4 µM.

**Q.** What about the Ki (Bcl-2-like protein 1) of the same compound?
**A.** The Ki was greater than 15 µM.

**Q.** Which results are given for `O=C(O)c1sc2cccc(Cl)c2c1Cl`?
**A.** Ki [1]: > 1000 µM; Ki (Bcl-2-like protein 1): > 1000 µM

**Q.** With `O=C(O)c1sc2cc(Cl)ccc2c1CCCOc1cccc2ccccc12` as the compound, how does the Ki [1] read?
**A.** Its Ki is 0.96 µM.
